The values that follow come from US12269793B2, “Affinity illudofulvene conjugates” (AF Chemicals, LLC, priority 2019, dated 2025).

A word on the IC50: it is the concentration at which inhibition is half-maximal.

Where two headings read alike, the source gives them in different places. Where a SMILES comes first, the peptide text is derived from it. The star is where a group is joined. X4 = CC1=C(C*)C2=C(C)C3(CC3)[C@@](C)(O)C(=O)C2=C1 Where only a bound is given, the exact number is not on record here.

Holding throughout (assay): cells
Test [1] deals with MV522 Target Cell Line (lung-derived adenocarcinoma). Conditions: MV522, 48 h, read-out: Mean IC50 value.
Test [2] shares this test system. Conditions: MV522, 2 h, read-out: Mean IC50 value.
Test [3] deals with 8392B Nontarget Cell Line (hematopoietic). As to conditions: 2 h.
Setting [4] is: read-out: Mean IC50 value, 8392B Nontarget Cell Line, 2 hr exposure, ± SD, N = 3 unless otherwise indicated.

As for `CC1=C(Br)C2=C(C)C3(CC3)[C@@](C)(O)C(=O)C2=C1` [Analog 004], the half-maximal inhibitory concentration (IC50) in test [1] worked out at 0.6 µM.

In the case of `CC1=C(CC2CC(C=O)CC(C=O)C2O)C2=C(C)C3(CC3)[C@@](C)(O)C(=O)C2=C1` (stereo partly drawn) [Analog 013], in test [2], the half-maximal inhibitory concentration (IC50) was determined as 5.1 ± 0.7 µM. In the case of `CC1=C2C(=C[C@@]3(C)COCO[C@@H]23)C(=O)[C@](C)(O)C12CC2` [Analog 014], the IC50 in test [2] came out at 0.115 ± 0.03 µM; in test [3] (setting [4]), 9.65 ± 0.2 µM. As to `CC(=O)O[C@@]1(C)C(=O)C2=CC(C)=C(CO)C2=C(C)C12CC2` [Analog 015], the half-maximal inhibitory concentration (IC50) stood at 0.48 ± 0.11 µM in test [1] and 0.81 ± 0.26 µM in test [3] (setting [4]).

As to `CC1=C(COCC2=C(C)C=C3C(=O)[C@](C)(O)C4(CC4)C(C)=C32)C2=C(C)C3(CC3)[C@@](C)(O)C(=O)C2=C1` [Analog 017], the half-inhibitory concentration (IC50) is 0.32 ± 0.06 µM in test [1] and 14.7 ± 0.9 µM in test [3] (setting [4]). Regarding `CC1=C(CO[C@@H]2O[C@@H](CO)[C@H](O)[C@@H](O)[C@@H]2O)C2=C(C)C3(CC3)[C@@](C)(O)C(=O)C2=C1` [Analog 018], the IC50 in test [2] came out at 8.8 ± 2.9 µM. As for `COC(C)(C)OCC1=C(C)C=C2C(=O)[C@](C)(O)C3(CC3)C(C)=C21` [Analog 021], the 50% inhibitory concentration (IC50) was 0.93 ± 0.25 µM in test [1] and 34.4 ± 9.4 µM in test [3] (setting [4]). Turning to `CC1=C(COCCO)C2=C(C)C3(CC3)[C@@](C)(O)C(=O)C2=C1` [Analog 022], the IC50 in test [3] (setting [4]) turned out to be 31.7 ± 1.4 µM. Turning to `CC1=C(CSCc2ccccc2)C2=C(C)C3(CC3)[C@@](C)(O)C(=O)C2=C1` [Analog 024], the IC50 in test [3] (setting [4]) was 12.8 ± 2.1 µM. Still for that read-out and setting: the value for `COC(=O)CSCC1=C(C)C=C2C(=O)[C@](C)(O)C3(CC3)C(C)=C21` [Analog 025] was more than 25 µM. Regarding `COC(=O)CSCC1=C(C)C(SCC(=O)OC)=C2C(=O)[C@](C)(O)C3(CC3)C(C)=C12` [Analog 030], in test [1], the half-inhibitory concentration (IC50) was more than 3 µM. The same measure, in the same setting: the value for `COC(=O)CSCC1=C(C)C(SCC(=O)OC)C2(O)C(=O)[C@](C)(O)C3(CC3)C(C)=C12` (stereo partly drawn) [Analog 031] was more than 3 µM. On to `CC1=C(CSCC(O)CO)C2=C(C)C3(CC3)[C@@](C)(O)C(=O)C2=C1` (stereo partly drawn) [Analog 032], for which the half-inhibitory concentration (IC50) is 0.6 ± 0.19 µM in test [2] and more than 30 µM in test [3] (setting [4]). As for `CC1=C2C=CC=C2C(=O)C2(OCCO2)C12CC2` [Analog 033], the values for the IC50 in test [1] and in test [3] (setting [4]) were 4.6 ± 0.2 µM and 29.9 ± 3.3 µM, respectively.

Turning to `CC(=O)OCC1=C(C)C=C2C(=O)[C@](C)(O)C3(CC3)C(C)=C21` [Analog 034], the IC50 in test [1] is 0.49 ± 0.04 µM; in test [3] (setting [4]) it was more than 100 µM.

Consider `CC1=C2C=CC=C2C(=O)C(O)C12CC2` (stereo not drawn) [Analog 035], for which the IC50 in test [2] is 5.6 ± 0.6 µM; in test [3] (setting [4]) it was more than 150 µM. In the case of `CC1=C(CSCC(N)C(=O)O)C2=C(C)C3(CC3)[C@@](C)(O)C(=O)C2=C1` (stereo partly drawn) [Analog 037], the IC50 in test [1] was 29.2 ± 2.3 µM; in test [3] (setting [4]), more than 85 µM. With `CC1=C(CCC(=O)O)C2=C(C)C3(CC3)[C@@](C)(O)C(=O)C2=C1` [Analog 038], the IC50 in test [2] was 0.75 ± 0.06 µM; in test [3] (setting [4]), 24.9 ± 8 µM. Take `COC(CCC1=C(C)C=C2C(=O)[C@](C)(O)C3(CC3)C(C)=C21)OC` [Analog 039]: the values for the IC50 in test [1] and in test [3] (setting [4]) were 0.6 ± 0.04 µM and 24.6 ± 2.4 µM, respectively. Consider `CC1=C2C=CC=C2[C@@H](O)C2(OCCO2)C12CC2` [Analog 060], for which the figures for the IC50 in test [2] and in test [3] (read-out: Mean IC50 value) were 19.4 ± 1.8 µM and 27.6 ± 3 µM, respectively.

Take `CC1=C2C=C(CO)C=C2C(=O)[C@](C)(O)C12CC2` [Analog 062]: the values for the IC50 in test [1] and in test [3] (setting [4]) were 0.66 ± 0.2 µM and 37.1 ± 2.3 µM, respectively. `CC1=C2C(=CC(CO)=C2CO)C(=O)[C@](C)(O)C12CC2` [Analog 063]: the IC50 in test [1] was 0.58 ± 0.25 µM. Turning to `CC(=O)N[C@@H](CSCC1=CC=C2C(=O)[C@](C)(O)C3(CC3)C(C)=C12)C(=O)N[C@@H](C)c1ccccc1` [Analog 065], in test [2], the IC50 stood at 6.2 ± 1.1 µM. As for `CC(=O)OCC1=CC2=C(C)C3(CC3)[C@@](C)(O)C(=O)C2=C1` [Analog 075], the figures for the 50% inhibitory concentration (IC50) in test [2] and in test [3] (setting [4]) were 19.6 ± 9.7 µM and 62 ± 3.6 µM, respectively. In the case of `CC(=O)OCC1=C(COC(C)=O)C2=C(C)C3(CC3)[C@@](C)(O)C(=O)C2=C1` [Analog 076], the IC50 in test [3] (setting [4]) was 39.5 ± 7.2 µM. For the molecule `CC(=O)OCC1=C(CO)C2=C(C)C3(CC3)[C@@](C)(O)C(=O)C2=C1` [Analog 077], in test [2], the IC50 came to 9.2 ± 1.2 µM. Regarding `CC(=O)OCC1=C(CO)C=C2C(=O)[C@](C)(O)C3(CC3)C(C)=C21` [Analog 078], the IC50 in test [2] is 20.4 ± 6.3 µM; in test [3] (setting [4]) it was more than 100 µM.

In the case of `COCC1=CC2=C(C)C3(CC3)[C@@](C)(O)C(=O)C2=C1` [Analog 079], in test [3] (setting [4]), the IC50 was more than 100 µM.

For the molecule `COCC1=C(C)C=C2C(=O)[C@](C)(O)C3(CC3)C(C)=C21` [Analog 080], the IC50 was 8.8 ± 2.4 µM in test [2] and more than 100 µM in test [3] (setting [4]).

Turning to `COCC1=C(CO)C=C2C(=O)[C@](C)(O)C3(CC3)C(C)=C21` [Analog 081], the IC50 in test [2] and in test [3] (setting [4]) was more than 80 µM each time. Regarding `COCC1=C(COC)C2=C(C)C3(CC3)[C@@](C)(O)C(=O)C2=C1` [Analog 082], the IC50 in test [2] is 50.6 ± 7.1 µM; in test [3] (setting [4]), more than 100 µM. `CC1=C(CSCC[C@H](N)C(=O)O)C2=C(C)C3(CC3)[C@@](C)(O)C(=O)C2=C1` [Analog 097]: the IC50 in test [3] (setting [4]) is more than 82 µM. Regarding `CC1=C2C(=O)[C@](C)(CO)C=C2C(=O)[C@](C)(O)C12CC2` [Analog 099], the IC50 is 8.4 ± 1.1 µM in test [2] and 4 ± 0.4 µM in test [3] (setting [4]). Regarding `CC1=C(CSC[C@H](N)C(=O)N[C@@H](CC(N)=O)C(=O)NCC(=O)N[C@@H](CCCNC(=N)N)C(=O)N[C@@H](CS)C(=O)O)C2=C(C)C3(CC3)[C@@](C)(O)C(=O)C2=C1` [Analog 102] (H-C(X4)NGRC-OH), the IC50 in test [2] was more than 13 µM. Consider `CC1=C2C(=CC3=C2COCOC3)C(=O)[C@](C)(O)C12CC2` [Analog 104], for which the IC50 in test [3] (setting [4]) is 36.4 ± 6.5 µM. Take `CC1=C2C(=CC(C)(C)[C@@H]2OC(=O)CCCC(=O)O)C(=O)[C@](C)(O)C12CC2` [Analog 106]: the results for the IC50 in test [2] and in test [3] (setting [4]) were 5.2 ± 1 µM and more than 83 µM, respectively.

For `CC1=C2C(=CC(C)(C)[C@@H]2OC(=O)CCCC(=O)Oc2ccc3c(c2)CCC2C3CC[C@]3(C)C(=O)CCC23)C(=O)[C@](C)(O)C12CC2` (stereo partly drawn) [Analog 107], the IC50 in test [2] and in test [3] (read-out: Mean IC50 value) was more than 50 µM in each case. For `CC1=C2C(=CC(C)(C)[C@@H]2OC(=O)CCCC(=O)Oc2ccc3c(c2)CCC2C3CC[C@]3(C)C(O)CCC23)C(=O)[C@](C)(O)C12CC2` (stereo partly drawn) [Analog 109], the IC50 in test [2] and in test [3] (read-out: Mean IC50 value) was more than 50 µM throughout. With `CC1=C(COC(C)(C)C)C2=C(C)C3(CC3)[C@@](C)(O)C(=O)C2=C1` [Analog 116], the IC50 stood at 0.4 ± 0.1 µM in test [2] and 7 ± 0.4 µM in test [3] (setting [4]). As to `CC1=C2C(=C[C@@](C)(COC(=O)c3cc([N+](=O)[O-])cc([N+](=O)[O-])c3)C2OC(=O)CCCC(=O)O)C(=O)[C@](C)(O)C12CC2` (stereo partly drawn) [Analog 118], the IC50 in test [3] (setting [4]) came to 24.5 ± 4.5 µM. Still for that read-out and setting: under `CC1=C(CCC=NNC(N)=O)C2=C(C)C3(CC3)[C@@](C)(O)C(=O)C2=C1` [Analog 121] stands 15.2 ± 6 µM. For the molecule `CC1=C(CCC=NNc2ccccc2)C2=C(C)C3(CC3)[C@@](C)(O)C(=O)C2=C1` [Analog 122], the IC50 in test [3] (setting [4]) was found to be 14.5 ± 1.2 µM. Turning to `CC1=C(CCC=NNS(=O)(=O)c2ccc(C)cc2)C2=C(C)C3(CC3)[C@@](C)(O)C(=O)C2=C1` [Analog 123], the IC50 in test [1] was determined as 0.6 ± 0.06 µM.

Regarding `CC1=C(C=NO)C2=C(C)C3(CC3)[C@@](C)(O)C(=O)C2=C1` [Analog 126], the IC50 in test [3] (setting [4]) is more than 30 µM. Consider `CC1=C(CCC(O)C#N)C2=C(C)C3(CC3)[C@@](C)(O)C(=O)C2=C1` (stereo partly drawn) [Analog 127], for which the IC50 in test [2] is 0.87 ± 0.03 µM; in test [3] (setting [4]) it was more than 30 µM.
